From ChEMBL document CHEMBL1255313 (Antimicrob Agents Chemother, 2008)

How the values were obtained:
[1] = tested on: Homo sapiens; experiment: AUC (0 to infinity) in healthy human plasma assessed as hydroxybupropion level at 150 mg, po co-treated with ritonavir 200 mg tid for 1 day, 300 mg bid for next 2 days measured after 48 hrs; format: ADME, organism-based; parameters: dose 150 mg, time infinity, route oral; conditions: in vivo
[2] = tested on: Homo sapiens; experiment: AUC (0 to infinity) in healthy human plasma assessed as hydroxybupropion level at 150 mg, po co-treated with ritonavir 200 mg tid for 1 day, 300 mg bid for next 6 days, 400 mg bid upto 17 day of study measured after 48 hrs; format: ADME, organism-based; parameters: dose 150 mg, route oral, time infinity; conditions: in vivo
[3] = tested on: Homo sapiens; experiment: Tmax in healthy human plasma assessed as hydroxybupropion level at 150 mg, po co-treated with ritonavir 200 mg tid for 1 day, 300 mg bid for next 2 days measured after 48 hrs; format: ADME, organism-based; conditions: in vivo
[4] = tested on: Homo sapiens; experiment: Tmax in healthy human plasma assessed as hydroxybupropion level at 150 mg, po co-treated with ritonavir 200 mg tid for 1 day, 300 mg bid for next 6 days, 400 mg bid upto 17 day of study measured after 48 hrs; format: ADME, organism-based; conditions: in vivo
[5] = tested on: Homo sapiens; experiment: AUC (0 to 72) in healthy human plasma assessed as hydroxybupropion level at 150 mg, po co-treated with ritonavir 200 mg tid for 1 day, 300 mg bid for next 2 days measured after 48 hrs; format: ADME, organism-based; parameters: time < 72 hr, dose 150 mg, route oral; conditions: in vivo, 72 h
[6] = tested on: Homo sapiens; experiment: AUC (0 to 72) in healthy human plasma assessed as hydroxybupropion level at 150 mg, po co-treated with ritonavir 200 mg tid for 1 day, 300 mg bid for next 6 days, 400 mg bid upto 17 day of study measured after 48 hrs; format: ADME, organism-based; parameters: dose 150 mg, time < 72 hr, route oral; conditions: in vivo, 72 h
[7] = tested on: Homo sapiens; experiment: AUC (0 to 72) in healthy human plasma assessed as (R,R)-hydroxybupropion level at 150 mg, po co-treated with ritonavir 200 mg tid for 1 day, 300 mg bid for next 2 days measured after 48 hrs by high-performance liquid chromatography-tandem mass spectrometry; format: ADME, organism-based; parameters: time < 72 hr, dose 150 mg, route oral; conditions: in vivo, 72 h
[8] = tested on: Homo sapiens; experiment: AUC (0 to 72) in healthy human plasma assessed as (R,R)-hydroxybupropion level at 150 mg, po co-treated with ritonavir 200 mg tid for 1 day, 300 mg bid for next 6 days, 400 mg bid upto 17 day of study measured after 48 hrs by high-performance liquid chromatography-tandem mass spectrometry; format: ADME, organism-based; parameters: dose 150 mg, time < 72 hr, route oral; conditions: in vivo, 72 h
[9] = tested on: Homo sapiens; experiment: AUC (0 to infinity) in healthy human plasma assessed as (R,R)-hydroxybupropion level at 150 mg, po co-treated with ritonavir 200 mg tid for 1 day, 300 mg bid for next 2 days measured after 48 hrs by high-performance liquid chromatography-tandem mass spectrometry; format: ADME, organism-based; parameters: dose 150 mg, time infinity, route oral; conditions: in vivo
[10] = tested on: Homo sapiens; experiment: AUC (0 to infinity) in healthy human plasma assessed as (R,R)-hydroxybupropion level at 150 mg, po co-treated with ritonavir 200 mg tid for 1 day, 300 mg bid for next 6 days, 400 mg bid upto 17 day of study measured after 48 hrs by high-performance liquid chromatography-tandem mass spectrometry; format: ADME, organism-based; parameters: dose 150 mg, time infinity, route oral; conditions: in vivo
[11] = tested on: Homo sapiens; experiment: Tmax in healthy human plasma assessed as (R,R)-hydroxybupropion level at 150 mg, po co-treated with ritonavir 200 mg tid for 1 day, 300 mg bid for next 2 days measured after 48 hrs by high-performance liquid chromatography-tandem mass spectrometry; format: ADME, organism-based; conditions: in vivo
[12] = tested on: Homo sapiens; experiment: (§1) Tmax in healthy human plasma assessed as (R,R)-hydroxybupropion level at 150 mg, po co-treated with ritonavir 200 mg tid for 1 day, 300 mg bid for next 6 days, 400 mg bid upto 17 day of study measured after 48 hrs by high-performance liquid chromatography-tandem mass spectrometry; format: ADME, organism-based; conditions: in vivo
[13] = tested on: Homo sapiens; experiment: AUC (0 to 72) in healthy human plasma assessed as (S,S)-hydroxybupropion level at 150 mg, po co-treated with ritonavir 200 mg tid for 1 day, 300 mg bid for next 2 days measured after 48 hrs by high-performance liquid chromatography-tandem mass spectrometry; format: ADME, organism-based; parameters: dose 150 mg, time < 72 hr, route oral; conditions: in vivo, 72 h
[14] = tested on: Homo sapiens; experiment: AUC (0 to 72) in healthy human plasma assessed as (S,S)-hydroxybupropion level at 150 mg, po co-treated with ritonavir 200 mg tid for 1 day, 300 mg bid for next 6 days, 400 mg bid upto 17 day of study measured after 48 hrs by high-performance liquid chromatography-tandem mass spectrometry; format: ADME, organism-based; parameters: dose 150 mg, time < 72 hr, route oral; conditions: in vivo, 72 h
[15] = tested on: Homo sapiens; experiment: AUC (0 to infinity) in healthy human plasma assessed as (S,S)-hydroxybupropion level at 150 mg, po co-treated with ritonavir 200 mg tid for 1 day, 300 mg bid for next 2 days measured after 48 hrs by high-performance liquid chromatography-tandem mass spectrometry; format: ADME, organism-based; parameters: dose 150 mg, time infinity, route oral; conditions: in vivo
[16] = tested on: Homo sapiens; experiment: AUC (0 to infinity) in healthy human plasma assessed as (S,S)-hydroxybupropion level at 150 mg, po co-treated with ritonavir 200 mg tid for 1 day, 300 mg bid for next 6 days, 400 mg bid upto 17 day of study measured after 48 hrs by high-performance liquid chromatography-tandem mass spectrometry; format: ADME, organism-based; parameters: dose 150 mg, time infinity, route oral; conditions: in vivo
[17] = AUC in healthy human plasma at 400 mg, po bid for 2 weeks; format: ADME, organism-based
[18] = AUC in healthy human plasma at 100 mg, po bid for 2 weeks; format: ADME, organism-based
[19] = Apparent renal clearance in human at 150 mg, po co-treated with ritonavir 200 mg tid for 1 day, 300 mg bid for next 2 days using 0-48 hrs urine sample; format: ADME, organism-based; conditions: read-out: CL_renal
[20] = Apparent renal clearance in human at 150 mg, po co-treated with ritonavir 200 mg tid for 1 day, 300 mg bid for next 6 days, 400 mg bid upto 17 day of study using 0-48 hrs urine sample; format: ADME, organism-based; conditions: read-out: CL_renal
[21] = tested on: Homo sapiens; experiment: Apparent renal clearance in human assessed as Hydroxybupropion at 150 mg, po co-treated with ritonavir 200 mg tid for 1 day, 300 mg bid for next 2 days using 0-48 hrs urine sample; format: ADME, organism-based; conditions: in vivo
[22] = tested on: Homo sapiens; experiment: Apparent renal clearance in human assessed as Hydroxybupropion at 150 mg, po co-treated with ritonavir 200 mg tid for 1 day, 300 mg bid for next 6 days, 400 mg bid upto 17 day of study using 0-48 hrs urine sample; format: ADME, organism-based; conditions: in vivo
[23] = tested on: Homo sapiens; experiment: Apparent renal clearance in human assessed as (R,R)-Hydroxybupropion at 150 mg, po co-treated with ritonavir 200 mg tid for 1 day, 300 mg bid for next 2 days using 0-48 hrs urine sample by high-performance liquid chromatography-tandem mass spectrometry; format: ADME, organism-based; conditions: in vivo
[24] = tested on: Homo sapiens; experiment: Apparent renal clearance in human assessed as (R,R)-Hydroxybupropion at 150 mg, po co-treated with ritonavir 200 mg tid for 1 day, 300 mg bid for next 6 days, 400 mg bid upto 17 day of study using 0-48 hrs urine sample by high-performance liquid chromatography-tandem mass spectrometry; format: ADME, organism-based; conditions: in vivo
[25] = tested on: Homo sapiens; experiment: Apparent renal clearance in human assessed as (S,S)-Hydroxybupropion at 150 mg, po co-treated with ritonavir 200 mg tid for 1 day, 300 mg bid for next 2 days using 0-48 hrs urine sample by high-performance liquid chromatography-tandem mass spectrometry; format: ADME, organism-based; conditions: in vivo
[26] = tested on: Homo sapiens; experiment: Apparent renal clearance in human assessed as (S,S)-Hydroxybupropion at 150 mg, po co-treated with ritonavir 200 mg tid for 1 day, 300 mg bid for next 6 days, 400 mg bid upto 17 day of study using 0-48 hrs urine sample by high-performance liquid chromatography-tandem mass spectrometry; format: ADME, organism-based; conditions: in vivo
[27] = Apparent clearance with respect to oral bioavailability in human at 150 mg, po co-treated with ritonavir 200 mg tid for 1 day, 300 mg bid for next 6 days, 400 mg bid upto 17 day of study measured after 48 hrs; format: ADME, organism-based; conditions: in vivo
[28] = AUC (0 to infinity) in healthy human plasma at 150 mg, po co-treated with ritonavir 200 mg tid for 1 day, 300 mg bid for next 6 days, 400 mg bid upto 17 day of study measured after 48 hrs; format: ADME, organism-based; parameters: dose 150 mg, time infinity, route oral
[29] = Apparent clearance with respect to oral bioavailability in human at 150 mg, po co-treated with ritonavir 200 mg tid for 1 day, 300 mg bid for next 2 days measured after 48 hrs; format: ADME, organism-based; conditions: in vivo
[30] = AUC (0 to infinity) in healthy human plasma at 150 mg, po co-treated with ritonavir 200 mg tid for 1 day, 300 mg bid for next 2 days measured after 48 hrs; format: ADME, organism-based; parameters: dose 150 mg, route oral, time infinity
[31] = tested on: Homo sapiens; experiment: Tmax in healthy human plasma assessed as (S,S)-hydroxybupropion level at 150 mg, po co-treated with ritonavir 200 mg tid for 1 day, 300 mg bid for next 2 days measured after 48 hrs by high-performance liquid chromatography-tandem mass spectrometry; format: ADME, organism-based; conditions: in vivo
[32] = tested on: Homo sapiens; experiment: as §1, with “Tmax in healthy human plasma assessed as (S,S)-hydroxybupropion” for “(R,R)-hydroxybupropion”; format: ADME, organism-based; conditions: in vivo
[33] = clinical; conditions: human, plasma, po
[34] = clinical; conditions: human, plasma, po; remark: listed apart in the source
[35] = clinical; conditions: human, plasma, po; remark: listed apart in the source
[36] = clinical; conditions: human, plasma, po; remark: listed apart in the source

SMILES: CC(NC(C)(C)C)C(=O)c1cccc(Cl)c1 (racemic) [BUPROPION]
- AUC [1]: 11330 ng·h/mL
- AUC [2]: 7560 ng·h/mL
- Tmax [3]: 3.6 h
- Tmax [4]: 3.4 h
- AUC [5]: 8470 ng·h/mL
- AUC [6]: 6100 ng·h/mL
- AUC [7]: 8120 ng·h/mL
- AUC [8]: 5829 ng·h/mL
- AUC [9]: 10950 ng·h/mL
- AUC [10]: 7330 ng·h/mL
- Tmax [11]: 3.8 h
- Tmax [12]: 3.5 h
- AUC [13]: 356 ng·h/mL
- AUC [14]: 274 ng·h/mL
- AUC [15]: 404 ng·h/mL
- AUC [16]: 303 ng·h/mL
- AUC at 336 h [17]: 57 ng·h/mL
- AUC at 336 h [18]: 50 ng·h/mL
- CL renal [19]: 20 mL/min
- CL renal [20]: 21 mL/min
- CL_renal [21]: 143 mL/min
- CL_renal [22]: 183 mL/min
- CL_renal [23]: 172 mL/min
- CL_renal [24]: 217 mL/min
- CL_renal [25]: 96 mL/min
- CL_renal [26]: 134 mL/min
- CL/F [27]: 3240 mL/min
- AUC(0-inf) [28]: 1030 ng·h/mL
- CL/F [29]: 2470 mL/min
- AUC(0-inf) [30]: 1290 ng·h/mL
- Tmax [31]: 1.7 h
- Tmax [32]: 1.5 h
- half-life [33]: 17.8 h
- half-life [34]: 16.8 h
- Cmax [35]: 267 ng/mL
- Cmax [36]: 345 ng/mL
